Key:
Assay type in all cases: functional
Tetranychus cinnabarinus [1] = test: Insecticidal activity against Tetranychus cinnabarinus (carmine spider mite) infested on Sieva bean plants leaves exposed to compound formulation at 50 mg/kg assessed as insect mortality measured 2 days post compound treatment; details: 48 h
Tetranychus cinnabarinus [2] = test: Insecticidal activity against Tetranychus cinnabarinus (carmine spider mite) infested on Sieva bean plants leaves exposed to compound formulation at 100 mg/kg assessed as insect mortality measured 2 days post compound treatment; details: 48 h
Tetranychus cinnabarinus [3] = test: Insecticidal activity against Tetranychus cinnabarinus (carmine spider mite) infested on Sieva bean plants leaves exposed to compound formulation at 200 mg/kg assessed as insect mortality measured 2 days post compound treatment; details: 48 h
Mythimna separata [4] = test: Insecticidal activity against Mythimna separata (Oriental armyworm) fourth-instar larvae infested compound pre-treated corn leaves assessed as insect mortality at 10 mg/kg measured 2 days post compound treatment
Mythimna separata [5] = test: Insecticidal activity against Mythimna separata (Oriental armyworm) fourth-instar larvae infested compound pre-treated corn leaves assessed as insect mortality at 20 mg/kg measured 2 days post compound treatment
Culex pipiens pallens [6] = test: Insecticidal activity against Culex pipiens pallens (mosquito) fourth-instar larvae assessed as insect mortality at 0.1 mg/kg measured 2 days post compound treatment; details: 48 h
Culex pipiens pallens [7] = test: Insecticidal activity against Culex pipiens pallens (mosquito) fourth-instar larvae assessed as insect mortality at 0.25 mg/kg measured 2 days post compound treatment; details: 48 h
Culex pipiens pallens [8] = test: Insecticidal activity against Culex pipiens pallens (mosquito) fourth-instar larvae assessed as insect mortality at 0.5 mg/kg measured 2 days post compound treatment; details: 48 h
Mythimna separata [9] = test: Insecticidal activity against Mythimna separata (Oriental armyworm) fourth-instar larvae infested compound pre-treated corn leaves assessed as insect mortality at 5 mg/kg measured 2 days post compound treatment

Structure (SMILES) | mortality at 50 mg/kg (Tetranychus cinnabarinus [1]) [%] | mortality at 100 mg/kg (Tetranychus cinnabarinus [2]) [%] | mortality at 200 mg/kg (Tetranychus cinnabarinus [3]) [%] | mortality at 10 mg/kg (Mythimna separata [4]) [%] | mortality at 20 mg/kg (Mythimna separata [5]) [%] | mortality at 0.1 mg/kg (Culex pipiens pallens [6]) [%] | mortality at 0.25 mg/kg (Culex pipiens pallens [7]) [%] | mortality at 0.5 mg/kg (Culex pipiens pallens [8]) [%] | mortality at 5 mg/kg (Mythimna separata [9]) [%]
C/C=C/NC(=O)C(=O)OCn1c(-c2ccc(Cl)cc2)c(C#N)c(Br)c1C(F)(F)F | 89 | 93 | 96 | 15 | 100 |  |  |  | 
N#Cc1c(Br)c(C(F)(F)F)n(COC(=O)C(=O)NC2CCCCC2)c1-c1ccc(Cl)cc1 |  | 46 | 76 | 20 | 100 | 20 | 90 | 100 | 
N#Cc1c(Br)c(C(F)(F)F)n(COC(=O)C(=O)Nc2ccccc2)c1-c1ccc(Cl)cc1 | 86 | 92 | 99 | 0 | 100 | 0 | 30 | 100 | 
Cc1ccccc1NC(=O)C(=O)OCn1c(-c2ccc(Cl)cc2)c(C#N)c(Br)c1C(F)(F)F |  |  |  | 10 | 100 | 100 | 100 | 100 | 
Cc1ccc(NC(=O)C(=O)OCn2c(-c3ccc(Cl)cc3)c(C#N)c(Br)c2C(F)(F)F)cc1 | 79 | 90 | 96 | 10 | 100 | 40 | 100 | 100 | 
N#Cc1c(Br)c(C(F)(F)F)n(COC(=O)C(=O)Nc2ccccc2Cl)c1-c1ccc(Cl)cc1 |  | 51 | 71 | 30 | 100 |  |  |  | 
N#Cc1c(Br)c(C(F)(F)F)n(COC(=O)C(=O)Nc2ccc(Cl)cc2)c1-c1ccc(Cl)cc1 | 84 | 92 | 100 | 20 | 100 | 0 | 10 | 100 | 
CC(C)COC(=O)C(=O)OCn1c(-c2ccc(Cl)cc2)c(C#N)c(Br)c1C(F)(F)F |  |  | 100 | 100 | 100 | 10 | 90 | 100 | 0
CCC(C)OC(=O)C(=O)OCn1c(-c2ccc(Cl)cc2)c(C#N)c(Br)c1C(F)(F)F (stereo not drawn) |  |  | 100 | 100 | 100 | 10 | 90 | 100 | 0
CC(C)(C)OC(=O)C(=O)OCn1c(-c2ccc(Cl)cc2)c(C#N)c(Br)c1C(F)(F)F |  |  |  | 10 | 100 |  |  |  | 
N#Cc1c(Br)c(C(F)(F)F)n(COC(=O)C(=O)OCC2CCCC2)c1-c1ccc(Cl)cc1 | 84 | 90 | 100 | 30 | 100 | 20 | 100 | 100 | 
N#Cc1c(Br)c(C(F)(F)F)n(COC(=O)C(=O)OC2CCCCC2)c1-c1ccc(Cl)cc1 |  |  |  | 20 | 100 | 20 | 90 | 100 | 
C/C=C/OC(=O)C(=O)OCn1c(-c2ccc(Cl)cc2)c(C#N)c(Br)c1C(F)(F)F |  |  |  | 30 | 100 | 80 | 100 | 100 | 
N#Cc1c(Br)c(C(F)(F)F)n(COC(=O)C(=O)OCCF)c1-c1ccc(Cl)cc1 | 83 | 92 | 100 | 10 | 100 | 100 | 100 | 100 | 
N#Cc1c(Br)c(C(F)(F)F)n(COC(=O)C(=O)OCC(F)(F)F)c1-c1ccc(Cl)cc1 | 92 | 95 | 100 | 10 | 70 | 0 | 30 | 100 | 
COCCOC(=O)C(=O)OCn1c(-c2ccc(Cl)cc2)c(C#N)c(Br)c1C(F)(F)F | 94 | 95 | 100 | 20 | 100 | 20 | 90 | 100 | 
CCOCCOC(=O)C(=O)OCn1c(-c2ccc(Cl)cc2)c(C#N)c(Br)c1C(F)(F)F |  |  |  | 20 | 100 | 80 | 100 | 100 | 
CCCNC(=O)C(=O)OCn1c(-c2ccc(Cl)cc2)c(C#N)c(Br)c1C(F)(F)F |  |  |  | 25 | 100 | 80 | 100 | 100 | 
CC(C)NC(=O)C(=O)OCn1c(-c2ccc(Cl)cc2)c(C#N)c(Br)c1C(F)(F)F | 87 | 95 | 100 | 20 | 100 | 30 | 80 | 100 | 
CCCCNC(=O)C(=O)OCn1c(-c2ccc(Cl)cc2)c(C#N)c(Br)c1C(F)(F)F |  | 0 | 48 | 0 | 100 | 20 | 90 | 100 | 
CCC(C)NC(=O)C(=O)OCn1c(-c2ccc(Cl)cc2)c(C#N)c(Br)c1C(F)(F)F (stereo not drawn) |  |  |  | 30 | 100 |  |  |  | 
CC(C)(C)NC(=O)C(=O)OCn1c(-c2ccc(Cl)cc2)c(C#N)c(Br)c1C(F)(F)F |  |  |  | 20 | 100 | 10 | 30 | 100 | 
COC(=O)C(=O)OCn1c(-c2ccc(Cl)cc2)c(C#N)c(Br)c1C(F)(F)F |  |  |  | 15 | 100 |  |  |  | 
CCOC(=O)C(=O)OCn1c(-c2ccc(Cl)cc2)c(C#N)c(Br)c1C(F)(F)F |  |  |  | 80 | 100 |  |  |  | 
CCCOC(=O)C(=O)OCn1c(-c2ccc(Cl)cc2)c(C#N)c(Br)c1C(F)(F)F |  |  | 100 | 100 | 100 | 10 | 100 | 100 | 0
CC(C)OC(=O)C(=O)OCn1c(-c2ccc(Cl)cc2)c(C#N)c(Br)c1C(F)(F)F |  |  | 100 | 70 | 100 | 20 | 100 | 100 | 
CCCCOC(=O)C(=O)OCn1c(-c2ccc(Cl)cc2)c(C#N)c(Br)c1C(F)(F)F |  |  |  | 100 | 100 |  |  |  | 
CCOCn1c(-c2ccc(Cl)cc2)c(C#N)c(Br)c1C(F)(F)F [CHLORFENAPYR] | 93 | 97 | 100 | 100 | 100 | 100 | 100 | 100 | 0

Reference: ChEMBL document CHEMBL3046536, “Synthesis, crystal structure, and insecticidal activity of novel N-alkyloxyoxalyl derivatives of 2-arylpyrrole” (2008)
